Test results: BindingDB's records for doi:10.1016/0960-894X(95)00507-P (Eli Lilly, 1995)

Biological target: T1, Dimer of Gag-Pol polyprotein [489-587] (Human immunodeficiency virus 1, UniProt P12497)
T1 construct: 489-587
Test: Protease Inhibition Assay
Description: In the presence of HIV-l protease, the substrate is rapidly cleaved into two parts. The biotinylated amino terminal fragment binds to the avidin Pandex beads while the FITC-containing carboxy1 terminal fragment is removed through the membrane.

**Q.** Which IC50 does the source give for `CC(C)[C@@H]1[C@H](OC(=O)N[C@@H](Cc2ccccc2)[C@H](O)CN2C[C@H]3CCCC[C@H]3CC2C(=O)NC(C)(C)C)CCS1(=O)=O` (stereo partly drawn) [(2R,3R)-1,1-dioxo-2-(propan-2-yl)--thiolan-3-yl N-[(2S,3R)-4-[(4aS,8aS)-3-(tert-butylcarbamoyl)-decahydroisoquinolin-2-yl]-3-hydroxy-1-phenylbutan-2-yl]carbamate] here?
**A.** The IC50 was 4.3 nM.

**Q.** For `CC(C)[C@H]1SCC[C@H]1OC(=O)N[C@@H](Cc1ccccc1)[C@H](O)CN1C[C@H]2CCS[C@H]2CC1C(=O)NC(C)(C)C` (stereo partly drawn) [(2R,3R)-2-(propan-2-yl)thiolan-3-yl N-[(2S,3R)-4-[(3aR,7aS)-6-(tert-butylcarbamoyl)-octahydrothieno[3,2-c]pyridin-5-yl]-3-hydroxy-1-phenylbutan-2-yl]carbamate], which IC50 is on record?
**A.** Its IC50 is 0.26 nM.

**Q.** How did the IC50 turn out when `CC(C)[C@H]1[C@@H](OC(=O)N[C@@H](CSc2ccccc2)[C@H](O)CN2C[C@H]3CCS[C@H]3CC2C(=O)NC(C)(C)C)CCS1(=O)=O` (stereo partly drawn) [(2S,3S)-1,1-dioxo-2-(propan-2-yl)--thiolan-3-yl N-[(2R,3R)-4-[(3aR,7aS)-6-(tert-butylcarbamoyl)-octahydrothieno[3,2-c]pyridin-5-yl]-3-hydroxy-1-(phenylsulfanyl)butan-2-yl]carbamate] was run?
**A.** The IC50 was 0.95 nM.

**Q.** `C[C@@H]1OCC[C@@H]1OC(=O)N[C@@H](CSc1ccccc1)[C@H](O)CN1C[C@H]2CCS[C@H]2CC1C(=O)NC(C)(C)C` (stereo partly drawn) [(2S,3S)-2-methyloxolan-3-yl N-[(2R,3R)-4-[(3aR,7aS)-6-(tert-butylcarbamoyl)-octahydrothieno[3,2-c]pyridin-5-yl]-3-hydroxy-1-(phenylsulfanyl)butan-2-yl]carbamate] was tested. Which IC50 (pH 5.5, 22 °C) did it give?
**A.** The IC50 was 0.28 nM.

**Q.** `CC(C)(C)NC(=O)C1C[C@@H]2SCC[C@@H]2CN1C[C@@H](O)[C@H](CSc1ccccc1)NC(=O)O[C@@H]1CCS(=O)(=O)C1` (some centres not stated) [hydroxyethylene isostere] was tested. Which IC50 (pH 5.5, 22 °C) did it give?
**A.** Its IC50 is 2 nM.

**Q.** With `CC(C)(C)NC(=O)C1C[C@@H]2SCC[C@@H]2CN1C[C@@H](O)[C@H](CSc1ccccc1)NC(=O)O[C@H]1CCS(=O)(=O)C1` (some centres not stated) [hydroxyethylene isostere] as the molecule, how does the IC50 (pH 5.5, 22 °C) read?
**A.** The IC50 was 1.7 nM.

**Q.** Which IC50 does the source give for `CC(C)[C@@H]1SCC[C@@H]1OC(=O)N[C@@H](Cc1ccccc1)[C@H](O)CN1C[C@H]2CCS[C@H]2CC1C(=O)NC(C)(C)C` (some centres not stated) [hydroxyethylene isostere] here?
**A.** Its IC50 is 2.6 nM.

**Q.** `CC(C)[C@@H]1[C@H](OC(=O)N[C@@H](CSc2ccccc2)[C@H](O)CN2C[C@H]3CCS[C@H]3CC2C(=O)NC(C)(C)C)CCS1(=O)=O` (some centres not stated) [hydroxyethylene isostere] was tested. Which IC50 did it give?
**A.** The IC50 was 0.42 nM.

**Q.** How did the IC50 turn out when `CC(C)[C@@H]1[C@H](OC(=O)N[C@@H](Cc2ccccc2)[C@H](O)CN2C[C@H]3CCS[C@H]3CC2C(=O)NC(C)(C)C)CCS1(=O)=O` (some centres not stated) [hydroxyethylene isostere] was run?
**A.** The IC50 was 1.3 nM.

**Q.** With `CC(C)[C@H]1[C@@H](OC(=O)N[C@@H](Cc2ccccc2)[C@H](O)CN2C[C@H]3CCCC[C@H]3CC2C(=O)NC(C)(C)C)CCS1(=O)=O` (some centres not stated) [hydroxyethylene isostere] as the molecule, how does the IC50 (pH 5.5, 22 °C) read?
**A.** The IC50 was 8.1 nM.

**Q.** For `CC(C)[C@H]1[C@@H](OC(=O)N[C@@H](Cc2ccccc2)[C@H](O)CN2C[C@H]3CCS[C@H]3CC2C(=O)NC(C)(C)C)CCS1(=O)=O` (some centres not stated) [hydroxyethylene isostere], which IC50 is on record?
**A.** The IC50 was 2.6 nM.

**Q.** `C[C@@H]1[C@@H](OC(=O)N[C@@H](CSc2ccccc2)[C@H](O)CN2C[C@H]3CCS[C@H]3CC2C(=O)NC(C)(C)C)CCS1(=O)=O` (some centres not stated) [hydroxyethylene isostere] was tested. Which IC50 (pH 5.5, 22 °C) did it give?
**A.** The IC50 was 5.2 nM.

**Q.** For `C[C@@H]1[C@H](OC(=O)N[C@@H](CSc2ccccc2)[C@H](O)CN2C[C@H]3CCS[C@H]3CC2C(=O)NC(C)(C)C)CCS1(=O)=O` (some centres not stated) [hydroxyethylene isostere], which IC50 (pH 5.5, 22 °C) is on record?
**A.** The IC50 was 0.75 nM.

**Q.** How did the IC50 (pH 5.5, 22 °C) turn out when `C[C@@H]1[C@H](OC(=O)N[C@@H](Cc2ccccc2)[C@H](O)CN2C[C@H]3CCCC[C@H]3CC2C(=O)NC(C)(C)C)CCS1(=O)=O` (some centres not stated) [hydroxyethylene isostere] was run?
**A.** Its IC50 is 10 nM.

**Q.** With `C[C@H]1OCC[C@H]1OC(=O)N[C@@H](CSc1ccccc1)[C@H](O)CN1C[C@H]2CCS[C@H]2CC1C(=O)NC(C)(C)C` (some centres not stated) [hydroxyethylene isostere] as the molecule, how does the IC50 (pH 5.5, 22 °C) read?
**A.** The IC50 was 3 nM.

**Q.** For `C[C@H]1[C@@H](OC(=O)N[C@@H](CSc2ccccc2)[C@H](O)CN2C[C@H]3CCS[C@H]3CC2C(=O)NC(C)(C)C)CCS1(=O)=O` (some centres not stated) [hydroxyethylene isostere], which IC50 (pH 5.5, 22 °C) is on record?
**A.** Its IC50 is 0.4 nM.

**Q.** For `C[C@H]1[C@H](OC(=O)N[C@@H](CSc2ccccc2)[C@H](O)CN2C[C@H]3CCS[C@H]3CC2C(=O)NC(C)(C)C)CCS1(=O)=O` (some centres not stated) [hydroxyethylene isostere], which IC50 (pH 5.5, 22 °C) is on record?
**A.** The IC50 was 1.4 nM.
